Data reported in PMC2375326, “In vitro evaluation of amino acid prodrugs of novel antitumour 2-(4-amino-3-methylphenyl)benzothiazoles” (British Journal of Cancer, 2002).

Tests used:
[1] = system: CYP1A1 protein expression in MCF-7 cells; assay: Western blot of CYP1A1 protein, MCF-7 lysates; assay type: cell-based, human; details: 1 μM, 24 h
Protocol: (§1) Whole cell lysates were prepared for examination of CYP1A1 protein expression from untreated MCF-7, IGROV-1 and HCT 116 cultures and following exposure of cells to compounds 1, 2, 2a, 2b, 3, 3a, 3b, 4, 4a and 4b. Following protein determination (n=3, [Bradford, 1976]) and addition of sample buffer, samples were boiled at 95°C for 5 min and solubilised proteins (50 μg) were separated by sodium dodecyl sulphate (SDS) polyacrylamide gel (10%) electrophoresis. Proteins were electroblotted to polyvinylidene difluoride (PVDF) membranes and probed for CYP1A1 protein with polyclonal antiserum specific for human CYP1A1/1A2 (Gentest Corporation). Secondary antibody was conjugated to alkaline phosphatase, and CYP1A1 was detected following brief (<10 min) incubation with bromochloroindolyl phosphate and nitro-blue tetrazolium in alkaline phosphatase buffer. Molecular weight markers and a positive control of recombinant CYP1A1 (Gentest Corporation), included in all blots, confirmed detection of 52 kDa CYP1A1 protein.

CYP1A1 [2] = biological target: T1, CYP1A1 (Homo sapiens, UniProt P04798); assay: Inhibition of recombinant CYP1A1 microsomal EROD activity; assay type: biochemical; details: microsomes expressing recombinant CYP1A1, pH 7.4, probe 7-ethoxyresorufin (100 μM); 30 μM agent; incubates without drug = 100% activity; mean of three, s.d. <10%; read-out: Microsomal CYP1A1 EROD activity (% control)
T1 sequence (P04798 1-512): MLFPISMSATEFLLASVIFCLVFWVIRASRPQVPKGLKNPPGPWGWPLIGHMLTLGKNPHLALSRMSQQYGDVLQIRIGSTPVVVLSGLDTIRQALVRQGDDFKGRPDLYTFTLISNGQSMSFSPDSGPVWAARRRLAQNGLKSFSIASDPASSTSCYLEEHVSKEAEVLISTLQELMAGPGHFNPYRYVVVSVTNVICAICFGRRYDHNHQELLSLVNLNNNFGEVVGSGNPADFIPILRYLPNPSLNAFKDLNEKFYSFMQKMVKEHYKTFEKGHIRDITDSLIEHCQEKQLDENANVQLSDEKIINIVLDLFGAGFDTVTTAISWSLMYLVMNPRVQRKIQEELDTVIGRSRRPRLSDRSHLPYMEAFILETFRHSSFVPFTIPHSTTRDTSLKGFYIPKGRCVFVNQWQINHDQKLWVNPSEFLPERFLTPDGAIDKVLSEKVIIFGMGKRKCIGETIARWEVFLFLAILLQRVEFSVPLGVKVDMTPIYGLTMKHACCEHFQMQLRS
Protocol: (§2) A sensitive and rapid fluorometric assay was used to measure EROD activity ([Burke et al, 1994]). Incubation mixtures (total 1 ml) consisted of 100 mM Tris-HCl (pH 7.4), 50 μM MgCl2, 100 μM 7-ethoxyresorufin and 100 μl cell homogenate. Homogenates were prepared following treatment of cells for 24 h with compounds 1, 2, 2a, 2b, 3, 3a, 3b, 4, 4a and 4b or vehicle alone and protein content determined (n=3). Thus induction of ethoxyresorufin O-deethylation by agents under study, catalysed by CYP1A1 activity, could be determined. Alternatively, microsomes expressing recombinant CYP1A1 (0.1 mg ml^−1) provided the enzyme source for EROD catalysis, in the presence or absence of drug, in order to determine inhibition of CYP1A1 activity by compounds 1, 2, 2a, 2b, 3, 3a, 3b, 4, 4a and 4b. Incubation mixtures were pre-incubated for 5 min at 37°C before initiation of reaction by addition of NADPH (500 μM). Following further incubations at 37°C (30 min for cell homogenates, 15 min for CYP1A1 microsomes), reactions were terminated by addition of 3 ml ice-cold acetonitrile. Reaction mixtures were centrifuged (1400 r.p.m., 10 min) before analyses of supernatants. Fluorescence was read on a Perkin-Elmer LS-5 luminescence spectrometer (excitation, 530 nm; emission 585 nm). Estimation of resorufin reaction product (pmoles mg^−1 protein, pmoles 100 μg^−1 microsomes), as a measure of CYP1A1 activity, was determined following performance of a resorufin standard curve.

[3] = system: MDA 468 (ER−) human derived breast carcinoma cells; assay: Growth inhibitory assay (MTT), MDA 468; assay type: cell-based; details: Breast carcinoma cell, ER− MDA 468, 3 days (72 h) treatment, n=8, representative mean, ^a = biphasic dose response
Protocol: (§3) Prodrugs were prepared as 10 mM top stocks, dissolved in dimethylsulphoxide (DMSO) or sterile ddH2O, and stored at 4°C, protected from light for a maximum period of 4 weeks. MCF-7 (ER+) and MDA 468 (ER−) human derived breast carcinoma cells, cultivated at 37°C in an atmosphere of 5% CO2 in RPMI 1640 medium supplemented with 2 mM L-glutamine and 10% foetal calf serum, were routinely subcultured twice weekly to maintain continuous logarithmic growth. Cells were seeded into 96-well microtiter plates at a density of 5×10^3 per well and allowed 24 h to adhere before drugs were introduced (final concentration 0.1 nM–100 μM, n=8). Serial drug dilutions were prepared in medium immediately prior to each assay. Viable cell masses at the time of drug addition (time-zero), and following 72 h drug exposure were determined by cell-mediated 3-(4,5-dimethylthiazol-2-yl)-2,5-diphenyltetrazolium bromide (MTT) reduction. MTT was added to each well (final concentration 400 μg ml^−1) and plates were incubated at 37°C for 4 h to allow reduction of MTT by viable cell dehydrogenases to an insoluble formazan product. Well supernatants were aspirated and cellular formazan solubilised by addition of DMSO : glycine buffer (pH 10.5) (4 : 1). Cell growth as well as drug activity were determined by measuring absorbance at 550 nm using an Anthos Labtec systems plate reader.

[4] = system: MCF-7 (ER+) human derived breast carcinoma cells; assay: Growth inhibitory assay (MTT), MCF-7; assay type: cell-based; details: MCF7, ER+ MCF-7, 3 days (72 h) treatment, n=8, representative mean, ^a = biphasic dose response
Protocol: as §3

[5] = system: CYP1A1 activity (EROD) in MCF-7 cells; assay: Induction of EROD activity in lysates of treated MCF-7 cells; assay type: cell-based, human; details: lysates of MCF-7 cells treated with 1 μM, 24 h; negligible activity in untreated lysates; mean of three, s.d. <10%
Protocol: as §2

[6] = system: CYP1A1 protein expression in HCT 116 cells; assay: Western blot of CYP1A1 protein, HCT 116 lysates; assay type: cell-based, human
Protocol: as §1

MCF-7 cells = assay: Prodrug uptake, conversion and metabolism (HPLC of media), MCF-7; assay type: in vitro ADME, human; details: for Biotransformation products of liberated parent amine in media: prodrug 10 μM, days 1–7
Protocol: (§4) MCF-7 cells were seeded into 25 ml flasks at appropriate densities (5×10^5–5×10^6). After 24 h, medium was changed and drug introduced at a final concentration of 10 μM. Media samples, collected from flasks at time zero and 24 h intervals, were mixed with 1.5-fold volumes of high performance liquid chromatography (HPLC) grade acetonitrile to precipitate protein and centrifuged at 14 000 g for 5 min. Supernatants (600 μl) were mixed with 400 μl 10% acetonitrile in 1% acetic acid and analysed by HPLC. The system consisted of Beckman System Gold equipment (solvent module 128, autosampler 507e and multiple wavelength UV detector 168). Separation of parent compounds and biotransformation products was effected at room temperature on a Phenomenex Aqua C18 reversed-phase column (150×4.6 mm). The mobile phase was formed by increasing, then decreasing the acetonitrile concentration in 1% acetic acid over 20 min by mixing two solutions: acetonitrile-water-acetic acid (10 : 90 : 1, v v^−1) and acetonitrile-water-acetic acid (80 : 20 : 1 v v^−1) and delivered at a flow rate of 1 ml min^−1. Compounds were detected at 324 nm.

T47D breast cells = assay: Prodrug uptake, conversion and metabolism (HPLC of media), T47D; assay type: in vitro ADME, human
Protocol: as §4, with “The mobile phase was formed by increasing, then decreasing the acetonitrile concentration in 1% acetic acid over 20 min by mixing two solutions: acetonitrile-water-acetic acid (10 : 90 : 1, v v^−1) and acetonitrile-water-acetic acid (80 : 20 : 1 v v^−1) and delivered at a flow rate of 1 ml min^−1.” left out
(§5) Uptake and metabolism of compounds 1a and 1b were examined in sensitive breast (MCF-7 and T47D) and insensitive renal (A498) cells using HPLC conditions which allow simultaneous detection of prodrug, parent amine and metabolites. When incubated at 0.1, 1 or 10 μM over 7 days at 37°C, the lysyl-amide compound 1a was most readily removed from the media supporting MCF-7 and T47D cells (Figure 2

CYP1A1 [7] = biological target: T1, CYP1A1; parameters: method as in Chua et al, 2000; details: ref Chua et al, 2000; cited from earlier work
A498 renal cells = assay: Prodrug uptake, conversion and metabolism (HPLC of media), A498; assay type: in vitro ADME, human
Protocol: as §4, with “The mobile phase was formed by increasing, then decreasing the acetonitrile concentration in 1% acetic acid over 20 min by mixing two solutions: acetonitrile-water-acetic acid (10 : 90 : 1, v v^−1) and acetonitrile-water-acetic acid (80 : 20 : 1 v v^−1) and delivered at a flow rate of 1 ml min^−1.” left out
as §5

[8] = Stability in human plasma; assay type: in vitro ADME; details: 37°C; no free amine detected
Excerpt: Data have been presented describing the in vitro biological properties of alanyl and lysyl amide derivatives of 2-(4-amino-3-methylphenyl)benzothiazoles. Prodrugs are rapidly depleted from nutrient media, generating their parent species in the presence of cells (Figures 2 and 3). In the absence of cells, no spontaneous hydrolysis of the amide bond occurs to release the amine from its amino acid salt. The cleavage of amino acid amides may be catalysed by ubiquitously expressed aminopeptidases, but subsequent bioactivating steps, essential for the mechanism of action of aminophenylbenzothiazoles, take place selectively in sensitive cell lines (e.g. Figure 5). Compounds 1a and 1b were stable when incubated at 37°C with human plasma; specifically, no free amine was detected.

| Compound | CYP1A1 protein expression (Western blot) [1] | activity at 15 min, 30 μM (CYP1A1 [2]) [%] | GI50 [3] [nM] | GI50 [4] [nM] | Induction EROD activity [5] | CYP1A1 protein expression (Western blot) [6] | Biotransformation products of liberated parent amine in media (MCF-7 cells) | Time of peak media level of regenerated parent amine (T47D breast cells; T47D cells, regenerated from amide prodrugs, 7 day incubation) [days] | Time of peak media level of regenerated parent amine (MCF-7 cells; regenerated from amide prodrugs, 7 day incubation) [days] | Removal of effluxed parent amine from media (A498 renal cells; inherently resistant A498 cells, 7 day incubation) | Hydrolysis of prodrug to parent amine (T47D breast cells; 10 μM, sensitive ER+ T47D breast cells, 37°C) | Stability in human plasma [8] | Hydrolysis of prodrug to parent amine (A498 renal cells; 10 μM, insensitive A498 renal cells, 37°C) | Inhibition of CYP1A1 microsome activity (CYP1A1 [7]) |
| --- | --- | --- | --- | --- | --- | --- | --- | --- | --- | --- | --- | --- | --- | --- |
| Cc1cc(-c2nc3ccc(F)cc3s2)ccc1N [Compound 3] | induced | 36.4 | 0.73 | 0.65 | 32.60 nM resorufin mg^-1 protein | not induced | emergence of an oxidative metabolite | – | – | – | – | – | – | – |
| Cc1cc(-c2nc3ccccc3s2)ccc1N [Compound 1, 2-(4-amino-3-methylphenyl)benzothiazole] | induced | 22.6 | < 0.1 | < 0.1 | 17.58 nM resorufin mg^-1 protein | not induced | – | 3 | 3 | negligible net removal | – | – | – | irreversibly inhibited |
| Cc1cc(-c2nc3ccccc3s2)ccc1NC(=O)[C@H](C)N [Compound 1a] | – | – | 39.9 | 0.32 | – | – | – | – | – | – | rapidly and efficiently hydrolysed | stable | rapidly and efficiently hydrolysed | – |
| Cc1cc(-c2nc3cc(F)c(F)cc3s2)ccc1N [Compound 4] | induced | 43.1 | 3.55 | < 0.1 | 32.02 nM resorufin mg^-1 protein | – | emergence of an oxidative metabolite | – | – | – | – | – | – | – |
| Cc1cc(-c2nc3ccccc3s2)ccc1NC(=O)[C@@H](N)CCCCN [Compound 1b] | – | – | 67.1 | 41.6 | – | – | – | – | – | – | – | stable | – | – |

Second part, led by results:

| CYP1A1 protein expression (Western blot) [1] | activity at 15 min, 30 μM (CYP1A1 [2]) [%] | GI50 [3] [nM] | GI50 [4] [nM] | Induction EROD activity [5] | CYP1A1 protein expression (Western blot) [6] | Biotransformation products of liberated parent amine in media (MCF-7 cells) | Time of peak media level of regenerated parent amine (T47D breast cells; T47D cells, regenerated from amide prodrugs, 7 day incubation) [days] | Time of peak media level of regenerated parent amine (MCF-7 cells; regenerated from amide prodrugs, 7 day incubation) [days] | Removal of effluxed parent amine from media (A498 renal cells; inherently resistant A498 cells, 7 day incubation) | Hydrolysis of prodrug to parent amine (T47D breast cells; 10 μM, sensitive ER+ T47D breast cells, 37°C) | Stability in human plasma [8] | Hydrolysis of prodrug to parent amine (A498 renal cells; 10 μM, insensitive A498 renal cells, 37°C) | Compound | Inhibition of CYP1A1 microsome activity (CYP1A1 [7]) |
| --- | --- | --- | --- | --- | --- | --- | --- | --- | --- | --- | --- | --- | --- | --- |
| induced | 47 | 328 | 147 | 19.88 nM resorufin mg^-1 protein | – | – | – | – | – | – | – | – | Cc1cc(-c2nc3ccc(F)cc3s2)ccc1NC(=O)[C@@H](N)CCCCN [Compound 3b] | – |
| induced | 41.9 | 220 | 33 | 17.09 nM resorufin mg^-1 protein | – | – | – | – | – | – | – | – | Cc1cc(-c2nc3cc(F)c(F)cc3s2)ccc1NC(=O)[C@H](C)N [Compound 4a] | – |
| induced | 28.9 | 297 | 43.5 | 20.40 nM resorufin mg^-1 protein | – | – | – | – | – | – | – | – | Cc1cc(-c2nc3ccc(F)cc3s2)ccc1NC(=O)[C@H](C)N [Compound 3a] | – |
| induced | 54.9 | 302 | 30.7 | 20.04 nM resorufin mg^-1 protein | – | – | – | – | – | – | – | – | Cc1cc(-c2nc3cc(F)c(F)cc3s2)ccc1NC(=O)[C@@H](N)CCCCN [Compound 4b] | – |
| induced | 40.6 | 37.7 | 5.8 | 28.37 nM resorufin mg^-1 protein | – | – | – | – | – | – | – | – | Cc1cc(-c2nc3cc(F)ccc3s2)ccc1NC(=O)[C@H](C)N [Compound 2a] | – |
